This assay deals with T1, Peptide deformylase (Streptococcus pneumoniae (strain ATCC BAA-255 / R6), UniProt Q8DP79).
T1 sequence (Q8DP79 whole entry): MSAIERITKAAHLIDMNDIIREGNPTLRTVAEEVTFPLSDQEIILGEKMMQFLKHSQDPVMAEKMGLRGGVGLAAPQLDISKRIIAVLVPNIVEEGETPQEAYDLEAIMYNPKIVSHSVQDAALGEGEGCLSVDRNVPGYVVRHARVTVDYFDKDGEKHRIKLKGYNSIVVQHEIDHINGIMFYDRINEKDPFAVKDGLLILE
The experiment in a line: Binding Assay. The text has this:
Binding assay using PDF inhibitors.

Consider `CCCCC[C@H](CN(O)C=O)C(=O)NNc1nccc(C(F)(F)F)n1` [PDF inhibitor, compound 1], for which the Ki (usually the dissociation constant of the complex between target and ligand, obtained from inhibition or displacement) was 6310 nM. `CNC(=O)c1cccc(C)c1Nc1nc(N2CCN(c3ccccc3Cl)CC2)nc(N2CSC[C@H]2C(=O)NCC(=O)NO)n1` [PDF inhibitor, compound 2]: the inhibition constant Ki was 334 nM. The same measure for `O=CC(O)CCNC(=O)c1cccc(Cl)c1Cl` (stereo unspecified) [PDF inhibitor, compound 4]: 25900 nM; for `CNC(=O)c1cccc(C)c1Nc1nc(N2CCN(c3ccccc3Cl)CC2)nc(N2CSC[C@H]2COCC(=O)NO)n1` [PDF inhibitor, compound 6]: 213 nM; for `Cc1ccccc1Nc1nc(N2CCN(c3ccccc3Cl)CC2)nc(N2CSC[C@H]2C(=O)NCC(=O)NO)n1` [PDF inhibitor, compound 7]: 650 nM. With `Cc1ccccc1Nc1nc(N2CCN(c3ccccc3Cl)CC2)nc(N2CSC[C@H]2COCC(=O)NO)n1` [PDF inhibitor, compound 8], the Ki turned out to be 53.7 nM.
